{"source": "patent US20200061092A1", "about": "“METHODS AND COMPOSITIONS FOR TREATING DISORDERS ASSOCIATED WITH MUSCLE WEAKNESS” (priority 2018, published 2020)", "key": {"[1]": {"assay": "Serum ribitol measurement by LC/MS-MS", "assay_type": "in vivo", "description": "Ribitol was purchased from Sigma (A5502). Sera were collected, and blinded samples were placed in individual wells of a 96-well plate and analyzed by LC/MS-MS. An Applied Biosystems Sciex 4000 (Applied Biosystems; Foster City, Calif.) equipped with a Shimadzu HPLC (Shimadzu Scientific Instruments, Inc.: Columbia, Md.) and Leap auto-sampler (LEAP Technologies; Carrboro, N.C.) were used to detect ribitol from samples and synthetic compound. […] MeOH:ACN (1:1). The following gradient was used: 0-12 min, 5% buffer B; 13-14 min, 95% buffer B, 15-17 min, 5% buffer B. Under these conditions, ribitol eluted at 8.3 min. The metabolite was analyzed using electrospray ionization mass spectrometry operated in positive ion mode, ESI+. Compound concentrations in tissue samples were determined based on standard curves prepared by serial dilutions (200-0.01 μM) of the compound in MeOH:ACN (1:1)."}, "[2]": {"tested_on": "F-α-DG (functionally glycosylated α-DG)", "assay": "Western blot (IIH6C4) quantification and laminin overlay assay of muscle lysates from ribitol-treated P448L mice", "assay_type": "in vivo, mouse", "details": "for F-α-DG by IIH6C4 western blot, % of normal (C57) levels: 6 months (FIG. 3c)", "procedure": "Ribitol was purchased from Sigma (A5502 Adonitol, ≥98%, Sigma, St. Louis) and dissolved in drinking water to the final concentration of 5% or 10%. […] mice aged at 4 weeks were treated with 5% ribitol drinking water for 1 month and […] mice aged at 7 weeks were treated with 5% ribitol drinking water for 3 months and 6 months. All the mice were randomly assigned to either treatment or control groups. And a minimum number of 4 mice were used for each group. No animal was excluded. […] female breeders were given 10% ribitol in drinking water during pregnancy, and pups continued to be treated with 10% ribitol in drinking water until they were euthanized at 19 weeks of age. Untreated age-matched […] and wild-type C57BL/6 mice were used as controls. The animals were terminated at the end of each treatment time point and tissues including heart, diaphragm, TA, quadriceps, liver, spleen and kidney were collected for analyses. For western blot analysis, tissues were homogenized in extraction buffer (50 mM Tris-HCl pH 8.0, 150 mM NaCl, and 1% Triton X-100), supplemented with 1× protease inhibitor cocktail (Sigma-Aldrich). Protein concentration was quantified by Bradford assay (Bio-Rad DC protein assay). Eighty μg of protein was loaded on a 4-15% Bio-Rad Mini-PROTEAN TGX gel (Bio-Rad) and immunoblotted. Amount of total protein loaded for C57 mice was half of the amount loaded for the […] mice. Nitrocellulose membranes (Bio-Rad) were blocked with 5% milk in 1×PBS for 2 hr at room temperature and then incubated with the following primary antibodies overnight at 4° C.: IIH6C4 (1:2000), AF6868 (R&D Systems) (1:1000) and α-actin (Sigma) (1:1000). Appropriate horseradish peroxidase (HRP)-conjugated secondary antibodies were incubated for 2 hr at room temperature. All blots were developed by electrochemiluminescence immunodetection (PerkinElmer). For IIH6C4 band quantification from western blot ImageJ software was used. For laminin overlay assay, nitrocellulose membranes were blocked with laminin overlay buffer (10 mM ethanolamine, 140 mM NaCl, 1 mM MgCl2, and 1 mM CaCl2, pH 7.4) containing 5% nonfat dry milk for 1 hr at 4° C. followed by incubation with laminin from Engelbreth-Holm-Swarm murine sarcoma basement membrane (L2020) (Sigma) at a concentration of 2 μg/ml overnight at 4° C. in laminin overlay buffer. Membranes were then incubated with rabbit anti-laminin antibody (Sigma) (1:1500) followed by goat anti-rabbit HRP-conjugated IgG secondary antibody (Santa Cruz Biotechnology) (1:3000). Blots were saturated with Western-Lightning Plus ECL (Perkin-Elmer) before exposure to and developing of GeneMate auto-radiographic film (VWR)."}, "[3]": {"details": "5% ribitol in drinking water (n = 4)"}}, "note": "Several values for one entry are separate records, joined by “and”; a condition that tells them apart may be missing. Identical values can stand only once."}
{"smiles": "OC[C@@H](O)[C@@H](O)[C@@H](O)CO", "note": "[ribitol]", "values": [{"measurement": "Mean serum ribitol", "setting": "[1]; [3]", "result": 2355, "unit": "ug ug/L"}, {"measurement": "Serum ribitol, individual animals", "setting": "[1]; [3]", "result": "924 ng/ml and 4221 ng/ml and 3184 ng/ml and 1092, ng/ml"}, {"measurement": "Therapeutic serum concentration in excess of normal ribitol serum levels", "setting": "[1]; about 10 mg/L vs normal serum level", "result": "roughly 1000 ×"}, {"measurement": "Tolerability at therapeutic serum concentration", "setting": "[1]; serum about 10 mg/L", "result": "no observable side effects"}, {"measurement": "Functionality of glycosylated α-DG by laminin overlay assay", "setting": "[2]; 5% ribitol, 6 months", "result": "supported by laminin overlay assay"}, {"measurement": "F-α-DG by IIH6C4 western blot, % of normal (C57) levels", "setting": "[2]; 5% ribitol, cardiac muscle", "result": "up to 14%"}, {"measurement": "F-α-DG by IIH6C4 western blot, % of normal (C57) levels", "setting": "[2]; 5% ribitol, diaphragm", "result": "≤ 17", "unit": "%"}, {"measurement": "Functionality of glycosylated α-DG by laminin overlay assay", "setting": "[2]; 10% ribitol from pregnancy to 19 weeks", "result": "supported by laminin overlay assay"}, {"measurement": "F-α-DG by IIH6C4 western blot, % of normal levels", "setting": "[2]; 10% ribitol from pregnancy to 19 weeks, diaphragm", "result": 18, "unit": "%"}, {"measurement": "F-α-DG by IIH6C4 western blot, % of normal levels", "setting": "[2]; 10% ribitol from pregnancy to 19 weeks, heart", "result": 14, "unit": "%"}, {"measurement": "F-α-DG by IIH6C4 western blot, % of normal levels", "setting": "[2]; 10% ribitol from pregnancy to 19 weeks, limb muscle", "result": 26, "unit": "%"}]}
